For assay [1], the target named is Squalene monooxygenase (Sus scrofa). Put plainly: The compound was tested for its inhibitory activity against pig Squalene epoxidase at pH 8.8.
For assay [2] the target is unchanged. As to the kind of experiment: The compound was tested for its inhibitory activity against pig Squalene epoxidase at pH 7.4.

Molecules are shown by their SMILES. pIC50: −log10 of the molar value.

Turning to `CC(C)=CCC/C(=C/CC/C(C)=C/CC/C=C(\C)CC/C=C(\C)CCC=C(C)C)CN` [6,11,15,19-tetramethyl-2-(4-methyl-3-pentenyl)-(2Z,6E,10E,14E)-2,6,10,14,18-icosapentaen-1-amine], the pIC50 in assay [1] is 4.49; in assay [2] it was 3.96.

A word on the pIC50: it is the IC50 on a negative log10 scale, so that one unit is a factor of ten. A higher pIC50 goes with a low IC50.
